Key:
[1] = target: T1, recombinant MST2 (Homo sapiens, UniProt Q13188); assay: Inhibition of Mst2 kinase activity, ELISA of Mob1 substrate phosphorylation; assay type: biochemical; details: MST2 IC50, 3.7 nM recombinant MST2; ATP 11.2 gIVI; GST-Mob1a substrate; 30° C. 15 min
T1 sequence (Q13188 1-491): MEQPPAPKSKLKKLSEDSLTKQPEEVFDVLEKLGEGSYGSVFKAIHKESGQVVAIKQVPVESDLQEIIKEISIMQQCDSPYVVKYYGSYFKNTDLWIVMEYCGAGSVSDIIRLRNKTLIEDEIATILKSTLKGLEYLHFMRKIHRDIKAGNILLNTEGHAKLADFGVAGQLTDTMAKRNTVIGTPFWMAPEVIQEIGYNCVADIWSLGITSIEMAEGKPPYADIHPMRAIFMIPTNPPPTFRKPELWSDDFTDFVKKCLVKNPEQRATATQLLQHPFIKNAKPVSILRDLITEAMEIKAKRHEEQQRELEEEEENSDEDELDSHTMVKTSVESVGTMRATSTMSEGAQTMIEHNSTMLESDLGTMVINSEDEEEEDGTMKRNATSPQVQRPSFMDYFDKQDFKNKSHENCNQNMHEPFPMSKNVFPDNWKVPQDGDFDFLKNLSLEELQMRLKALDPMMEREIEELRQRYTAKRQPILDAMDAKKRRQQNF
Description: (§1) We adopt a specific ELISA (Enzyme-linked immunosorbent assay) assay for measuring the biochemical activity (FIG. 1).
(§2) Specific methods are as follows:
(§3) 1. The substrate was diluted with purified recombinant GST-Mobla 200 nM in coating buffer, added to 96-well plates (Nalge Nunc International, Denmark), coated for overnight at 4° C., washed nextday three times with rinsing solution;
(§4) a. A kinase reaction buffer;
(§5) c. compound (dissolved in DMSO, containing not more than 1% of the total volume of the reaction);
(§6) Control Group Containing No ATP or Kinase;
(§7) 3. The reaction solution was poured to terminate the kinase reaction, and washed 4 times with rinse solution, 5 minutes each wash;
(§8) 4. Add 200 μL, per well of the blocking solution, shaking for 1 hour at room temperature, washed 4 times with rinsing solution;
(§9) 7. Add TMB chromogenic solution (Biolegend, Cat.B200119, B200120). After the color reaction to a certain extent, add to each well 100 μL, of 2M H2SO4 to terminate the reaction;
(§10) 8. […] Each set of three parallel experiments, the negative control is a solution with a final concentration of 1% DMSO, the control is the reaction system containing no ATP. […] The reagents are as follows: Coating Buffer: 0.1M NaHCO 3, 0.033M Na2CO3, pH 9.5 Rinse solution: 0.05% Tween-20 in PBS Reaction buffer: 40 mM of Hepes-NaOH (pH 7.4), 10 mM of MgCl2, 1 mM of dithiothreitol (DTT), 1 mM of NaF, 1 mM of Na3VO4, 1 mM of β-glycerophosphate Blocking solution: 1% BSA dissolved in PBS Compound Inhibition of Kinase Activity

[2] = target: T2, recombinant Mst1 (Homo sapiens, UniProt Q13043); assay: Inhibition of Mst1 kinase activity, ELISA of Mob1 substrate phosphorylation; assay type: biochemical; details: MST1 IC50, recombinant Mst1 11 nM; ATP 6.7 gIVI; GST-Mob1a substrate; 30° C. 15 min
T2 sequence (Q13043 1-487): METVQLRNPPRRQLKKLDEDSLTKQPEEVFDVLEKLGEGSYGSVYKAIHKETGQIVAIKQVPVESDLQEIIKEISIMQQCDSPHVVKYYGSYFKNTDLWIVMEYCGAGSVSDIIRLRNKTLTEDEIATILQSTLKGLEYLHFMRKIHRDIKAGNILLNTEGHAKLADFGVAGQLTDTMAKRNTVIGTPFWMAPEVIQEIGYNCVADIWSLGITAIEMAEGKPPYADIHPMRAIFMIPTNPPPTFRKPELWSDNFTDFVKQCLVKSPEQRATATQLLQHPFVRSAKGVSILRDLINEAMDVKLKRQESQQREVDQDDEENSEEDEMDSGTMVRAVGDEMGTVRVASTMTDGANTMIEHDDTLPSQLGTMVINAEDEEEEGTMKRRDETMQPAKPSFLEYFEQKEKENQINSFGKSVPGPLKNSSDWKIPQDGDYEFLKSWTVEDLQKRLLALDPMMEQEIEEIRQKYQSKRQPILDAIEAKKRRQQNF
Description: as §1, §2, §3, §4, §5, §6, §7, §8, §9, §10

SMILES	IC50 [1] [nM]	IC50 [2] [nM]
CN1C(=O)c2cccc(F)c2N(C)c2nc(Nc3ccc(S(N)(=O)=O)cc3)ncc21 [IH-11]	440	230
CN1C(=O)c2sccc2N(C)c2nc(Nc3ccc(S(=O)(=O)Oc4ccccc4)cc3)ncc21 [II-5]	8890	4640
CN1C(=O)c2sccc2N(C)c2nc(Nc3ccc(NC(=O)CCl)cc3)ncc21 [II-18]	13000	3340
CN1C(=O)c2sccc2N(C)c2nc(Nc3cn[nH]c3)ncc21 [II-28]	360	540
CN1C(=O)c2ccccc2N(C)c2nc(Nc3ccc(NS(C)(=O)=O)cc3)ncc21 [IC-10]	80	240
CN1C(=O)c2sccc2N(C)c2nc(Nc3ccc(NC(=O)CBr)cc3)ncc21 [II-19]	12600	3030
CN1C(=O)c2sccc2N(C)c2nc(Nc3cc[nH]n3)ncc21 [II-27]	–	3440
CN1C(=O)c2ccccc2Nc2nc(Nc3ccc(S(N)(=O)=O)cc3)ncc21 [IG-1]	2700	1550
CN1C(=O)c2cccc3c2N(CC3)c2nc(Nc3ccc(S(N)(=O)=O)cc3)ncc21 [IV-3]	1610	430
CN1C(=O)c2sccc2N(C)c2nc(Nc3ccc(C(N)=O)cc3)ncc21 [II-13]	260	330
CN1C(=O)c2ccc(Cl)cc2N(C)c2nc(Nc3ccc(S(N)(=O)=O)cc3)ncc21 [IH-13]	9470	7820
CCN1CCN(Cc2ccc(Nc3ncc4c(n3)N(C3CCCC3)c3ccccc3C(=O)N4C)cc2C(F)(F)F)CC1 [IF-6]	–	9760
CN1C(=O)c2sccc2N(C)c2nc(Nc3ccc(O)cc3)ncc21 [II-12]	220	570
CCN1c2ccccc2C(=O)N(C)c2cnc(Nc3cccc(S(N)(=O)=O)c3)nc21 [ID-3]	–	8650
CN1C(=O)c2cccc3c2N(CC3)c2nc(Nc3ccc(NS(C)(=O)=O)cc3)ncc21 [IV-1]	3970	6070
CN1C(=O)c2sccc2N(C)c2nc(Nc3ccc(S(=O)(=O)NC4CC4)cc3)ncc21 [II-6]	20	260
CN1C(=O)c2sccc2N(C)c2nc(Nc3ccc(S(=O)(=O)N4CCC(O)CC4)cc3)ncc21 [II-8]	1030	80
Cc1cccc2c1N(C)c1nc(Nc3ccc(S(C)(=O)=O)cc3)ncc1N(C)C2=O [IH-2]	1680	890
CN1C(=O)c2cc(Cl)ccc2N(C)c2nc(Nc3ccc(S(N)(=O)=O)cc3)ncc21 [IH-10]	–	5930
CN1CCN(C(=O)c2ccc(Nc3ncc4c(n3)N(C)c3ccsc3C(=O)N4C)cc2)CC1 [II-17]	2510	610
CC(C)N1c2ccccc2C(=O)N(C)c2cnc(Nc3cccc(S(N)(=O)=O)c3)nc21 [IE-2]	–	15800
CN1CCN(S(=O)(=O)c2ccc(Nc3ncc4c(n3)N(C)c3ccsc3C(=O)N4C)cc2)CC1 [II-7]	150	1100
CN1C(=O)c2ccccc2N(C)c2nc(Nc3ccc(S(=O)(=O)N4CCC(O)CC4)cc3)ncc21 [IC-3]	520	670
CN1CCC(n2cc(Nc3ncc4c(n3)N(C)c3ccsc3C(=O)N4C)cn2)CC1 [II-20]	2320	110
CN1C(=O)c2ccccc2N(C)c2nc(Nc3ccc(S(=O)(=O)NC4CC4)cc3)ncc21 [IC-9]	2330	180
CN1CCN(S(=O)(=O)c2ccc(Nc3ncc4c(n3)N(C3CCCC3)c3ccccc3C(=O)N4C)cc2)CC1 [IF-4]	–	6460
C=CC(=O)Nc1ccc(Nc2ncc3c(n2)N(C)c2ccsc2C(=O)N3C)cc1 [II-23]	4760	770

SMILES	IC50 [1] [nM]	IC50 [2] [nM]
CN1C(=O)c2ccccc2Nc2nc(Nc3ccc(NS(C)(=O)=O)cc3)ncc21 [IG-2]	14600	5800
CN1CCN(S(=O)(=O)c2ccc(Nc3ncc4c(n3)N(C3CCCC3)c3ccccc3C(=O)N4)cc2)CC1 [IB-2]	> 30000	> 30000
CN1C(=O)c2sccc2N(C)c2nc(Nc3ccc(OC(=O)CCl)cc3)ncc21 [II-25]	2240	580
CN1CCN(C2CCN(C(=O)c3ccc(Nc4ncc5c(n4)N(C)c4ccsc4C(=O)N5C)cc3)CC2)CC1 [II-24]	2250	220
CSc1ccc(Nc2ncc3c(n2)N(C)c2ccsc2C(=O)N3C)cc1 [II-3]	1720	850
Cc1ccc2c(c1)N(C)c1nc(Nc3ccc(S(N)(=O)=O)cc3)ncc1N(C)C2=O [IH-5]	2730	2400
CN1C(=O)c2sccc2N(C)c2nc(Nc3ccc(C(=O)O)cc3)ncc21 [II-10]	1970	1020
CC(C)N1c2ccccc2C(=O)N(C)c2cnc(Nc3ccc(NS(C)(=O)=O)cc3)nc21 [IE-3]	8210	2720
CN1C(=O)c2cccc(F)c2N(C)c2nc(Nc3ccc(S(C)(=O)=O)cc3)ncc21 [IH-12]	1940	1660
CN1C(=O)c2ccccc2N(C)c2nc(Nc3ccc(S(C)(=O)=O)cc3)ncc21 [IC-7]	90	500
CN1C(=O)c2sccc2N(C)c2nc(Nc3ccc(N4CCC(O)CC4)cc3)ncc21 [II-15]	1990	650
CN1C(=O)c2ccccc2N(C2CCCC2)c2nc(Nc3ccc(S(=O)(=O)N4CCC(O)CC4)cc3)ncc21 [IF-3]	15700	2440
CN1C(=O)c2cc(Cl)ccc2N(C)c2nc(Nc3ccc(S(C)(=O)=O)cc3)ncc21 [IH-9]	11600	5670
CN1C(=O)c2sccc2N(C)c2nc(Nc3cnn(C(=O)CCl)c3)ncc21 [II-30]	440	810
CN1C(=O)c2ccc(Cl)cc2N(C)c2nc(Nc3ccc(S(C)(=O)=O)cc3)ncc21 [IH-14]	22500	–
C=CS(=O)(=O)Nc1ccc(Nc2ncc3c(n2)N(C)c2ccsc2C(=O)N3C)cc1 [II-26]	410	820
CN1CCN(S(=O)(=O)c2ccc(Nc3ncc4c(n3)N(C)c3ccccc3C(=O)N4C)cc2)CC1 [IC-2]	7800	2320
O=C1Nc2cnc(Nc3ccc(S(=O)(=O)N4CCC(O)CC4)cc3)nc2N(C2CCCC2)c2ccccc21 [IB-3]	> 30000	> 30000
CN1C(=O)c2ccccc2N(C2CCCC2)c2nc(Nc3ccc(S(N)(=O)=O)cc3)ncc21 [IF-2]	3860	630
CN1C(=O)c2sccc2N(C)c2nc(Nc3ccc(S(C)(=O)=O)cc3)ncc21 [II-4]	220	170
CN1C(=O)c2ccc(F)cc2N(C)c2nc(Nc3ccc(S(C)(=O)=O)cc3)ncc21 [IH-8]	3360	2170
CN1C(=O)c2ccccc2N(C)c2nc(Nc3ccc(S(=O)(=O)Oc4ccccc4)cc3)ncc21 [IC-8]	200	13500
Cc1cccc2c1N(C)c1nc(Nc3ccc(S(N)(=O)=O)cc3)ncc1N(C)C2=O [IH-4]	190	150
CSc1ccc(Nc2ncc3c(n2)N(C)c2ccccc2C(=O)N3C)cc1 [IC-6]	1800	1910
CN1C(=O)c2ccccc2N(C)c2nc(Nc3ccc(S(N)(=O)=O)cc3)ncc21 [IC-1]	110	70
CN1C(=O)c2sccc2N(C)c2nc(Nc3cccc(S(N)(=O)=O)c3)ncc21 [II-2]	–	2710

From patent US10975092B2, “Pyrimidine seven-membered-ring compounds, preparation method therefor, pharmaceutical composition thereof, and uses thereof” (priority 2016, dated 2021)
